According to ChEMBL document CHEMBL3217638, “Synthetic modulators of the retinoic acid receptor-related orphan receptors” (Medchemcomm, 2013):

What was measured:
[1] = Plasma concentration in mouse at 10 mg/kg, ip administered as single dose after 1 hr; assay type: ADME, organism-based; parameters: dose 10 mg/kg, route intraperitoneal
[2] = Plasma concentration in mouse at 10 mg/kg, ip administered as single dose after 8 hrs; assay type: ADME, organism-based; parameters: dose 10 mg/kg, route intraperitoneal
[3] = target: T1, Nuclear receptor ROR-alpha (Mus musculus) (UniProt P51448); conditions: CHO-K1
T1 sequence (whole entry): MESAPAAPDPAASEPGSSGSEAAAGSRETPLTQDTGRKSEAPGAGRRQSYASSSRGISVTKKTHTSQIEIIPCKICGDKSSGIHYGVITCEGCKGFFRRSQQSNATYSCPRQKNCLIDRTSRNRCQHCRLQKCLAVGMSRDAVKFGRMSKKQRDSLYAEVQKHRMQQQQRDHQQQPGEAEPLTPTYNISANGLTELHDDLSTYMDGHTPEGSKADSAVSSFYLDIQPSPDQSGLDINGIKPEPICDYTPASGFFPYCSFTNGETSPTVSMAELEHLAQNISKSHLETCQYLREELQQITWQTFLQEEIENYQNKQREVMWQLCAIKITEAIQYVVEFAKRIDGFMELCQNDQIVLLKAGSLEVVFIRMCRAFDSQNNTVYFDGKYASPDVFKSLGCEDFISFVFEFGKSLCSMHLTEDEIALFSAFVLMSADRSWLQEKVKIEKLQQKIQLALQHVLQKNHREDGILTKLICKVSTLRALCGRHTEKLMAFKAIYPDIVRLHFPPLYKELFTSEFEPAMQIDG
Description: Inverse agonist activity at mouse ROR alpha expressed in CHO-K1 cells after 24 hrs by luciferase reporter gene assay relative to vehicle control response

[4] = target: T2, Nuclear receptor ROR-gamma (Mus musculus) (UniProt P51450); conditions: CHO-K1
T2 sequence (whole entry): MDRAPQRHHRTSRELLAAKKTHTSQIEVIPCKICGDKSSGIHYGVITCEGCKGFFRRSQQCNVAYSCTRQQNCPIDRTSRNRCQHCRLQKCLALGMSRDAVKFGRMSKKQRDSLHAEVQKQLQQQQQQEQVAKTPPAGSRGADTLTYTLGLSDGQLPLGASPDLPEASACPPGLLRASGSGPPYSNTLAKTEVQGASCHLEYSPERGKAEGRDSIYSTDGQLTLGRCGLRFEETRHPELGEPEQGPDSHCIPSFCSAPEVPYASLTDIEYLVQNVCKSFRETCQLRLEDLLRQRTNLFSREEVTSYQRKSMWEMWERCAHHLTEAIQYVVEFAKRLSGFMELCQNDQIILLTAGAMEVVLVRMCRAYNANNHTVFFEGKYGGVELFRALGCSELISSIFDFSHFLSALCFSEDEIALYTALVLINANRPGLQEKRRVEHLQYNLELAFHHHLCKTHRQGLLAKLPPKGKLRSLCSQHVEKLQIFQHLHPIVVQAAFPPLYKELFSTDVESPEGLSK
Description: Inverse agonist activity at mouse ROR gamma expressed in CHO-K1 cells after 24 hrs by luciferase reporter gene assay relative to vehicle control response

[5] = target: T3, Nuclear receptor ROR-beta (Homo sapiens) (UniProt Q92753); assay: Inhibition of ROR beta (unknown origin)-mediated transactivation
T3 sequence (whole entry): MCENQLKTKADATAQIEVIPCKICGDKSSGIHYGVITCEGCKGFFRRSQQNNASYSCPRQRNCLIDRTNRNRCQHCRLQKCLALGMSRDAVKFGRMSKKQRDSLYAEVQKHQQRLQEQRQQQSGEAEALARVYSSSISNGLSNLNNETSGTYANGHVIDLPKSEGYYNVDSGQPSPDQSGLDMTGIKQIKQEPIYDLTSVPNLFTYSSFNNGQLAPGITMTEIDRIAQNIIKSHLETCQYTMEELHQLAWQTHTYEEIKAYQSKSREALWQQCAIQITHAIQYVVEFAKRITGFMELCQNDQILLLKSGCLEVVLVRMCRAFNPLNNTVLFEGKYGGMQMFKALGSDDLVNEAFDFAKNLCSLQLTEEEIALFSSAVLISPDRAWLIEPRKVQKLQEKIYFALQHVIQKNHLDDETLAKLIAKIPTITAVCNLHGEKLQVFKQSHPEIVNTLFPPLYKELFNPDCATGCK

[6] = target: T4, Nuclear receptor ROR-alpha (Homo sapiens, UniProt P35398); assay: Displacement of 25-[3H]hydroxycholesterol from GST-tagged ROR alpha ligand binding domain (unknown origin) expressed in Escherichia coli BL21 gold (DE3) cells by radioligand competition assay
T4 sequence (P35398 whole entry): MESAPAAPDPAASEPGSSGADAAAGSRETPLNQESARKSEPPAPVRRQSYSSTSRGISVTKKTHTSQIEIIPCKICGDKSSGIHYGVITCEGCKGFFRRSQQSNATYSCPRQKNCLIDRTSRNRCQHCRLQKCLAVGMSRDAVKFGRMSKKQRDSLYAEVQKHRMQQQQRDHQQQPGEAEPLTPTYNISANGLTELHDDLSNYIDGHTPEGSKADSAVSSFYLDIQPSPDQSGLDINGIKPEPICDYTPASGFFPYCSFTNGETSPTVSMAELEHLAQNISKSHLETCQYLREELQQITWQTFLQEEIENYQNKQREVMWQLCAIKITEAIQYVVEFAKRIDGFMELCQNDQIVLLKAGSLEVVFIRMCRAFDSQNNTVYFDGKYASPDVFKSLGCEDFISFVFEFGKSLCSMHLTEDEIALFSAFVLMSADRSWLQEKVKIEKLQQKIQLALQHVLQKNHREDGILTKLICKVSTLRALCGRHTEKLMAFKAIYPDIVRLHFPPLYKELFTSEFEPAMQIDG

[7] = target: T5, Nuclear receptor ROR-gamma (Homo sapiens, UniProt P51449); assay: Displacement of 25-[3H]hydroxycholesterol from GST-tagged ROR gamma ligand binding domain (unknown origin) expressed in Escherichia coli BL21 gold (DE3) cells by radioligand competition assay
T5 sequence (P51449 whole entry): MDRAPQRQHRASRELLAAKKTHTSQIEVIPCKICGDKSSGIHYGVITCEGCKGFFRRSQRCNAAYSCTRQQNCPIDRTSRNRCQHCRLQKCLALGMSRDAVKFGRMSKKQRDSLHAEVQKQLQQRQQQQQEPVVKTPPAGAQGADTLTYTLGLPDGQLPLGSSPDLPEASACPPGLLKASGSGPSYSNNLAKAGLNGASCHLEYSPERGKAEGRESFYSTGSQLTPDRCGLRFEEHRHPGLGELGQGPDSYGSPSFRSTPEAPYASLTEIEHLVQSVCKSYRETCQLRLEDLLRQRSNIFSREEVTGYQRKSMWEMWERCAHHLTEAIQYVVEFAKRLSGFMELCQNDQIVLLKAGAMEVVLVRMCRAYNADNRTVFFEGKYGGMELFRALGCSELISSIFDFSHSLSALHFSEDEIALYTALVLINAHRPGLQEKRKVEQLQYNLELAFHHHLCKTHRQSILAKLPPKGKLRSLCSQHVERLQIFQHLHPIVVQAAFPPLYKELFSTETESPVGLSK

[8] = target: T5, Nuclear receptor ROR-gamma; assay: Agonist activity at full length human ROR gamma expressed in human Jurkat cells assessed as IL17 promoter activation by luciferase reporter gene assay; assay type: functional, cell-based
[9] = target: T6, Nuclear receptor ROR-gamma (Homo sapiens) (UniProt P51449); assay: Binding affinity to human ROR gamma ligand binding domain assessed as thermal stability shift by circular dichroism analysis
T6 sequence (whole entry): T5 sequence (P51449 whole entry)

[10] = target: T7, Oxysterols receptor LXR-alpha (Homo sapiens) (UniProt Q13133); assay: Activation of GAL4-fused LXR alpha (unknown origin) expressed in HEK293T cells after 20 hrs relative to T0901317; assay type: cell-based; conditions: HEK-293T
T7 sequence (whole entry): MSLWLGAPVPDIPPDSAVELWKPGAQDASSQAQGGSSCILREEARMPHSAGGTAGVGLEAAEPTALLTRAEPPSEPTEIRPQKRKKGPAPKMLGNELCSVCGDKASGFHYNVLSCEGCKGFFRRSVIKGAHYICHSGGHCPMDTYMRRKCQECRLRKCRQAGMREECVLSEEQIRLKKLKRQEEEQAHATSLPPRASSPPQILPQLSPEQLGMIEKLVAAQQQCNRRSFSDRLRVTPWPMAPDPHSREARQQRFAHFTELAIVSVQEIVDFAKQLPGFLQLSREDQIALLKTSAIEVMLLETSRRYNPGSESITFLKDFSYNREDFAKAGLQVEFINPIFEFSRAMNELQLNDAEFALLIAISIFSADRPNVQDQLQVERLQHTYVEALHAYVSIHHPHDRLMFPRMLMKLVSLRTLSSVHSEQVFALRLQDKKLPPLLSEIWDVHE

[11] = target: T5, Nuclear receptor ROR-gamma; assay: Displacement of 25-[3H]hydroxycholesterol from ROR gamma (unknown origin) by competitive binding assay
[12] = target: T5, Nuclear receptor ROR-gamma; assay: Agonist activity at human His6-tagged ROR gamma ligand binding domain (residues 262 to 507) expressed in Escherichia coli BL21 (DE3) cells assessed as increase in recruitment of coactivator peptide by AlphaScreen biochemical assay; assay type: functional
[13] = target: T6, Nuclear receptor ROR-gamma (Homo sapiens); assay: Agonist activity at ROR gamma in human CD4+ T cells assessed as IL-17 production at 3 uM by ELISA; assay type: cell-based; conditions: T-cell
[14] = target: T4, Nuclear receptor ROR-alpha; assay: Inverse agonist activity at GAL4-fused ROR alpha (unknown origin) expressed in HEK293 cells assessed as inhibition of transcriptional activity after 24 hrs by luciferase reporter gene assay; assay type: cell-based
[15] = Plasma concentration in mouse at 10 mg/kg, ip after 0.5 hrs; assay type: ADME, organism-based; parameters: dose 10 mg/kg, route intraperitoneal
[16] = Plasma concentration in mouse at 10 mg/kg, ip after 4 hrs; assay type: ADME, organism-based; parameters: dose 10 mg/kg, route intraperitoneal
[17] = target: T5, Nuclear receptor ROR-gamma; assay: Activity at human His(GST)-tagged ROR gamma LBD expressed in Escherichia coli BL21 (DE3) cells assessed as receptor-biotinylated SRC1 peptide interaction by TR-FRET assay; assay type: functional
[18] = target: T5, Nuclear receptor ROR-gamma
Description: Inverse agonist activity at GAL4-fused ROR gamma (unknown origin) expressed in HEK293 cells assessed as inhibition of transcriptional activity after 24 hrs by luciferase reporter gene assay

O=C(Nc1ccc(C(O)(C(F)(F)F)C(F)(F)F)cc1)c1ccc(C(F)(F)F)cc1
concentration at 1 h [1]: 3.6 µM | concentration at 8 h [2]: > 0.8 µM

Clc1ccc(CS/C(Cn2cncn2)=N\c2ccc(Cl)cc2Cl)cc1
IC20 [3]: 10 µM | IC20 [4]: 3 µM

CC1=C(/C=C/C(C)=C/C=C/C(C)=C/C(=O)O)C(C)(C)CCC1
Imax [5]: 70%

CC(C)CCC[C@@H](C)[C@H]1CC[C@H]2[C@@H]3C(=O)C=C4C[C@@H](O)CC[C@]4(C)[C@H]3CC[C@]12C [7-OXOCHOLESTEROL]
Ki [6]: 0.012 µM

CC(C)CCC[C@@H](C)[C@H]1CC[C@H]2[C@@H]3[C@@H](O)C=C4C[C@@H](O)CC[C@]4(C)[C@H]3CC[C@]12C
Ki [7]: 0.01 µM

CCC(=O)Nc1ccc2nn(-c3ccc(CC)cc3)nc2c1
EC50 [8]: 0.1 µM | melting temperature shift (delta Tm) [9]: 3 °C

CC(C)CCC(O)[C@@H](C)[C@H]1CC[C@H]2[C@@H]3CC=C4C[C@@H](O)CC[C@]4(C)[C@H]3CC[C@]12C (stereo partly drawn)
melting temperature shift (delta Tm) [9]: 7.3 °C

CCCCC(O)(Cn1cncn1)c1ccc(Cl)cc1Cl (stereo not drawn)
IC20 [3]: 10 µM | IC20 [4]: 3 µM

OC(c1ccc(-c2ccc(CN3CCN(Cc4ccncc4)CC3)cc2)c(F)c1)(C(F)(F)F)C(F)(F)F
Activity [10]: < 5%

CCC(C)c1cc(C(C)(C)c2ccc(O)c(C(C)CC)c2)ccc1O (stereo not drawn)
IC50 [11]: 0.15 µM

CC(c1ccccc1)(c1ccc(O)cc1)c1ccc(O)cc1
IC50 [11]: > 10 µM

CC(=O)N1CCN(Cc2ccc(-c3ccc(C(O)(C(F)(F)F)C(F)(F)F)cc3)cc2)CC1
Activity [10]: < 5%

CC(C)CC[C@@H](O)[C@@H](C)[C@H]1CC[C@H]2[C@@H]3CC=C4C[C@@H](O)CC[C@]4(C)[C@H]3CC[C@]12C [22(R)-HYDROXYCHOLESTEROL]
EC50 [12]: 0.02 µM

O=S(=O)(c1ccccc1)N(CC(F)(F)F)c1ccc(C(O)(C(F)(F)F)C(F)(F)F)cc1
IC20 [3]: 12 µM

Cc1cccc(C(=O)Nc2cc(-c3ccccc3)no2)c1
EC50 [8]: 0.1 µM | melting temperature shift (delta Tm) [9]: 3 °C

CC(C)CCC[C@@H](C)[C@H]1CC[C@H]2[C@@H]3[C@H](O)C=C4C[C@@H](O)CC[C@]4(C)[C@H]3CC[C@]12C
Ki [7]: 0.01 µM

CC(C)[C@@H](O)CC[C@@H](C)[C@H]1CC[C@H]2[C@@H]3CC=C4C[C@@H](O)CC[C@]4(C)[C@H]3CC[C@]12C
Ki [7]: 0.01 µM

CC(C)CC[C@H](O)[C@@H](C)[C@H]1CC[C@H]2[C@@H]3CC=C4C[C@@H](O)CC[C@]4(C)[C@H]3CC[C@]12C
EC50 [12]: 0.02 µM

CC(CO)CCC[C@@H](C)[C@H]1CC[C@H]2[C@@H]3CC=C4C[C@@H](O)CC[C@]4(C)[C@H]3CC[C@]12C (stereo partly drawn)
EC50 [12]: 0.02 µM

Cc1cc(C)c2nc(NC(=O)c3sccc3C)sc2c1
EC50 [8]: 0.1 µM | Activity [13]: 220% | melting temperature shift (delta Tm) [9]: 3 °C

O=S(=O)(Nc1ccc(C(O)(C(F)(F)F)C(F)(F)F)cc1)c1cccs1
Ki [6]: 0.22 µM | EC50 [14]: 0.48 µM | concentration at 0.5 h [15]: 9 µM | concentration at 4 h [16]: > 0.36 µM

CC(C)CCC[C@@](C)(O)[C@H]1CC[C@H]2[C@@H]3CC=C4C[C@@H](O)CC[C@]4(C)[C@H]3CC[C@@]21C
EC50 [12]: 0.02 µM

CCCOC/C(=N\c1ccc(Cl)cc1C(F)(F)F)n1ccnc1
IC20 [3]: 10 µM

O=C(O)c1ccc(-c2nn(C(=O)c3c(Cl)cccc3Cl)c3ccccc23)cc1
EC50 [17]: 0.011 µM

CC(=O)Nc1nc(C)c(S(=O)(=O)Nc2ccc(C(O)(C(F)(F)F)C(F)(F)F)cc2)s1
Ki [6]: 0.172 µM | Ki [7]: 0.111 µM | EC50 [14]: 4 µM | EC50 [18]: 4 µM
